Experimental data as given in patent US20160058743A1, “METHODS FOR TREATING SENSORIMOTOR IMPAIRMENTS ASSOCIATED WITH CERTAIN TYPES OF STROKE USING AMINOPYRIDINES” (ACORDA THERAPEUTICS, INC., priority 2013, published 2016).
Values joined by “and” are separate entries in the source; they are usually repeats but may differ in a detail not shown here. Identical values can stand only once.

System: rats with middle cerebral artery occlusion (MCAO)
Assay: Cylinder test (overall asymmetry, total movement) after MCAO
Type: in vivo, Sprague Dawley rats
Set-up: Cylinder Test (Total Movement) / Cylinder Test (Total Movement), Mean: unit not given here
Settings: for Cylinder Test (Total Movement) / Cylinder Test Score (Overall Asymmetry (%)): individual animals and group Mean; for Cylinder Test (Total Movement), Mean: N 15
Source text: In particular, the MCAO model in Sprague Dawley rats that was utilized in the experiments presented below mimics the conditions in human ischemic stroke. In this model, focal cerebral infarcts were made by permanent occlusion of the proximal right middle cerebral artery (MCA) using a modification of the method of Tamura et al. (No To […] 1986; 38:747-51). Briefly, the temporalis muscle was bisected and reflected through an incision made midway between the eye and the ear canal. The proximal MCA was exposed through a subtemporal craniectomy without removing the zygomatic arch and without transecting the facial nerve. […] In this experiment, Sprague Dawley rats were anesthetized, subjected to a surgery resulting in middle cerebral artery occlusion (MCAO), treated with and without 4-aminopyridine and behavioral assessments were performed as described below. Treatment was initiated at 4 weeks after stroke. Dosing and Treatment: Rats were treated in accordance with the dosing schedule shown in Tables 2A, 2B, 3 and FIG. 2, with each Phase being a two week period of time. A solution of 4-AP was used in this experiment. […] Vehicle control treatment was WFI delivered at 2 mL/kg by gastric gavage. […] Starting on day 30 after MCAO (Day 30, start of phase 1), the animals received gavage dosing of solutions (2 mL/kg) approximately 12 hours apart, for a total of five doses. The same schedule was repeated with different treatment on Day 44 and Day 58 for phase 2 and 3 of the study, respectively. Animals were not treated during the 10 days between phases (washout period). Treatment groups: Dosing was started 4 weeks after MCAO surgery. During these 4 weeks, weekly behavioral assessments, as defined below, were performed. […] Animals were given the first dose and behavioral assessments were performed starting 60 minutes after dosing. Animals then received the second dose that day at the appropriate time and b.i.d (preferably every 12 hours) thereafter for 2 more days (3 total days of dosing, 5 total doses). One hour after the 5th dose, animals were subjected to behavioral assessments as defined below. Following the final behavioral assessment, drug was withdrawn for 10 or 11 days, behavior was re-assessed, and then animals were re-challenged with a cross-over treatment (Phase 2 of Table 2B) as described in Tables 2A, 2B and 3, followed by the same behavioral testing and dosing regimen. This cross-over was repeated one more time as well (Phase 3 of Table 2B) (see FIG. 2). Cylinder Test: Evaluation was performed at Day -1 (pre-operation), Day 7, Day 21, Day 30, Day 32, Day 44, Day 46, Day 58, Day 60. This test assessed limb use asymmetry. Rats were placed in a transparent cylinder (20 cm in diameter and 30 cm in height) for 3-6 minutes. A mirror was placed behind the cylinder to determine forelimb movements when animal was turned away from the camera. […] Simultaneous use of both left and right forelimbs while contacting the wall during a full rear was also scored. A total number of 20 forelimb placings were counted during a trial. Data was expressed in terms of percent use of the non-impaired and or impaired forelimb relative to the total number of limb use observations for wall movements.

Nc1ccncc1 [4-AP, 4-aminopyridine]
Effect on body symmetry and coordination (cylinder test) (Example 2, 0.63 or 2 mg/kg b.i.d. p.o., started 4 weeks post MCAO, dose-dependent, reversible): effective to improve body symmetry and coordination
Cylinder Test (Total Movement) (Group 1, D 7): 131.00 and 130.00 and 77.00 and 57.00 (2×) and 139.00 and 35.00 and 15.00 and 32.00 and 14.00 and 63.00
Cylinder Test (Total Movement) (Group 1, D 7, mean): 58.07
Cylinder Test (Total Movement) (Group 1, D 21): 51.00 and 98.00 and 31.00 and 67.00 and 172.00 and 28.00 and 70.00 and 8.00 and 52.00 and 22.00 and 13.00
Cylinder Test (Total Movement) (Group 1, D 21, mean): 45.67
Cylinder Test (Total Movement) (Group 1, D 30): 0.00 (3×) and 75.00 and 2.00 and 10.00 (2×) and 6.00 and 13.00 and 12.00 and 4.00
Cylinder Test (Total Movement) (Group 1, D 32): 11.00 and 54.00 and 22.00 and 39.00 and 10.00 and 8.00 and 14.00 and 15.00 and 0.00 (2×) and 38.00
Cylinder Test (Total Movement) (Group 1, D 44): 28.00 and 93.00 and 48.00 and 57.00 and 47.00 and 9.00 and 123.00 and 11.00 and 5.00 and 66.00
Cylinder Test (Total Movement) (Group 1, D 46): 11.00 and 47.00 and 43.00 and 48.00 and 46.00 and 12.00 and 63.00 and 4.00 and 0.00 and 13.00
Cylinder Test (Total Movement) (Group 1, D 58): 14.00 and 137.00 and 18.00 and 81.00 and 53.00 and 16.00 and 74.00 and 0.00 and 11.00 and 26.00
Cylinder Test (Total Movement) (Group 1, D 58, mean): 36.47
Cylinder Test (Total Movement) (Group 1, D 60): 14.00 and 81.00 and 33.00 and 44.00 and 28.00 and 9.00 and 85.00 and 0.00 and 3.00 and 6.00
Cylinder Test (Total Movement) (Group 1, D 60, mean): 27.40
Cylinder Test (Total Movement) (Group 1, D −1): 64.00 and 152.00 and 81.00 and 52.00 and 100.00 and 53.00 and 47.00 and 14.00 and 31.00 and 23.00 and 49.00
Cylinder Test (Total Movement) (Group 1, D −1, mean): 63.07
Cylinder Test Score (Overall Asymmetry (%)) (Group 2, D 7): 55.47% and 28.85% and 25.00% and 51.56% and 50.00% and 58.33% and 42.36% and 28.57% and 43.14% and 24.32% and 14.29%
Cylinder Test Score (Overall Asymmetry (%)) (Group 2, D 7, mean): 38.14%
Cylinder Test Score (Overall Asymmetry (%)) (Group 2, D 21): 56.25% and −23.17% and 66.67% (2×) and 49.06% and 46.43% and 25.32% and 47.83% and 22.22% and 17.86% and −25.00%
Cylinder Test Score (Overall Asymmetry (%)) (Group 2, D 21, mean): 27.16%
Cylinder Test Score (Overall Asymmetry (%)) (Group 2, D 30): 51.72% and 0.00% and 4.17% and 56.64% and 27.59% and 75.00% and 20.99% and 27.50% and 16.67% and 20.00%
Cylinder Test Score (Overall Asymmetry (%)) (Group 2, D 32): 63.29% and 18.18% and 33.33% and 54.78% and 22.73% and 62.50% and 16.00% and 20.00% and 3.85% and 27.66% and −33.33%
Cylinder Test Score (Overall Asymmetry (%)) (Group 2, D 44): 58.33% and 14.04% and 38.96% and 52.53% and 11.54% and 54.93% and 7.14% and 18.18% and −27.08% and 17.65% and −20.00%
Cylinder Test Score (Overall Asymmetry (%)) (Group 2, D 44, mean): 14.61%
Cylinder Test Score (Overall Asymmetry (%)) (Group 2, D 46): 28.57% and 34.85% and 31.40% and 19.05% and 29.33% and 40.35% and 46.15% and 16.95% and 42.86% and 2.86%
Cylinder Test Score (Overall Asymmetry (%)) (Group 2, D 46, mean): 24.91%
Cylinder Test Score (Overall Asymmetry (%)) (Group 2, D 58): 29.17% and 50.00% and 66.67% and 54.76% and 30.00% and 88.00% and −7.69% and −16.67% and 62.50%
Cylinder Test Score (Overall Asymmetry (%)) (Group 2, D 60): 64.00% and 20.00% and 14.29% and 62.50% and 10.00% and 76.47% and 13.95% and 0.00% (2×) and −100.00%
Cylinder Test Score (Overall Asymmetry (%)) (Group 2, D −1): −15.58% and −1.96% and −24.39% and 2.38% and 0.00% and 1.65% and −2.20% and −7.58% and 21.05% and 8.45% and −2.70% and −5.66%
Cylinder Test Score (Overall Asymmetry (%)) (Group 2, D −1, mean): −4.05%
Cylinder Test (Total Movement), Mean (Group 3, D 44 after MCAO): 19.13
Cylinder Test (Total Movement), Mean (Group 3, D 46 after MCAO): 18.73
Cylinder Test (Total Movement), Mean (Group 3, D 58 after MCAO): 32.33
